Patent US20210137903A1, “ANTI-ANDROGENS FOR THE TREATMENT OF PROSTRATE CANCER” (priority 2019, published 2021)

Assays:
[1] = Example 1 relative bioavailability study: safety evaluations; format: in vivo, human
Protocol: Safety: Safety was evaluated throughout the study by means of adverse events (AEs), laboratory safety (hematology and serum chemistry), electrocardiograms (ECGs), vital signs (blood pressure, pulse, respiratory rate, and body temperature), and physical examinations (see the Time and Events Schedule in FIG. 1 for details).
Safety: Baseline for all laboratory evaluations, 12-lead ECG measurements, and vital signs were defined as the last evaluation done before the first study drug administration. Safety was evaluated by examining the incidence and type of adverse events, and changes in clinical laboratory test values, physical examination results, 12-lead ECGs, and vital sign measurements from the screening phase through study completion, including the washout intervals and the End-of-Study visit.
All subjects who were randomly assigned to treatment and received at least one dose of the study drug were included in the safety analysis.
The verbatim terms used in the CRF by investigators to identify adverse events was coded using the Medical Dictionary for Regulatory Activities (MedDRA). All reported adverse events with onset during the treatment phase (ie, treatment-emergent adverse events, and adverse events that have worsened since baseline) were included in the analysis. For each adverse event, the percentage of subjects who experience at least 1 occurrence of the given event was summarized by treatment group.
The severity assessment for an adverse event/serious adverse event was completed using the NCI-CTCAE Version 5.0. Any adverse event/serious adverse event not listed in the NCI-CTCAE was graded by the investigator using the standard grades as follows: […]

[2] = Dosing accuracy, chemical stability and appearance of apalutamide tablets dispersed in applesauce (UHPLC); format: physicochemical
Protocol: The tablet core weight was 700 mg. […] Appearance was determined visually. Dosing accuracy and chemical stability (the concentration and impurities) were measured using the following UHPLC Procedure. The reagents used in the UHPLC procedure were demineralized water, ammonium acetate, trifluoroacetic acid and acetonitrile. Mobile Phase A was a 10 mM NH4Ac+01% TFA/Acetonitrile (90/10 v/v) solution prepared as follows. 0.77 g Ammonium acetate (NH4Ac) was transferred into a 1000 mL volumetric flask. […] Mobile Phase B was acetonitrile. Sample solutions were prepared as described in the individual examples which follow hereinafter. [table] For chemical stability (chromatographic characteristics) the identity of impurities were assigned based on comparison of their Relative Retention Times (RRT) to known retention times, or retention times determined using reference solutions. […] The mixture was gently mixed in the container with a spatula for 10 seconds and the time recorded. The hold time of the sample was calculated against the moment the tablets were added to the mixture. After 15 minutes, the mixture was again gently mixed with a spatula for 10 seconds and the time recorded. After an additional 15 minutes, the mixture was again gently mixed with a spatula for until a uniform mixture was formed (at least 10 seconds) and the time recorded. […]

**Q.** With `CNC(=O)c1ccc(N2C(=S)N(c3cnc(C#N)c(C(F)(F)F)c3)C(=O)C23CCC3)cc1F` [apalutamide, 4-[7-(6-cyano-5-trifluoromethylpyridin-3-yl)-8-oxo-6-thioxo-5,7-diazaspiro[3.4]oct-5-yl]-2-fluoro-N-methylbenzamide] as the molecule, how does the “deaths or serious TEAEs” value ([1]; in vivo) read?
**A.** The value was “no deaths or serious TEAEs”.

**Q.** What about the “overall safety and tolerability of 240 mg as whole tablets and as dispersed tablets in applesauce” value ([1]; in vivo) of the same molecule?
**A.** Its value is “safe and generally well tolerated”.

**Q.** What about the “subjects with QTcB or QTcF increase of >60 ms from baseline” value ([1]; in vivo) of the same molecule?
**A.** The value was “No subjects”.

**Q.** And the “subjects with QTcB or QTcF values of >480 ms” value ([1]; in vivo)?
**A.** The value was “No subjects”.

**Q.** What about the “AE leading to treatment discontinuation” value ([1]; n (%)) of the same molecule?
**A.** The value was 1 (8.3%).

**Q.** What about the “AE leading to treatment discontinuation: >=Grade 3” value ([1]; n (%)) of the same molecule?
**A.** Its value is 0.

**Q.** What about the “AE leading to treatment discontinuation: Drug-related to Treatment A” value ([1]; n (%)) of the same molecule?
**A.** The value was 0.

**Q.** What about the “AE leading to treatment discontinuation: Drug-related to Treatment B” value ([1]; n (%)) of the same molecule?
**A.** Its value is 1 (8.3%).

**Q.** And the “AE leading to treatment discontinuation: Grade 1” value ([1]; n (%))?
**A.** Its value is 1 (8.3%).

**Q.** And the “AE leading to treatment discontinuation: Grade 2” value ([1]; n (%))?
**A.** The value was 0.

**Q.** And the “Serious TEAE: >=Grade 3” value ([1]; n (%))?
**A.** Its value is 0.

**Q.** And the “Serious TEAE: Drug-related to Treatment A” value ([1]; n (%))?
**A.** Its value is 0.

**Q.** And the “Serious TEAE: Drug-related to Treatment B” value ([1]; n (%))?
**A.** The value was 0.

**Q.** And the “Serious TEAE: Grade 1” value ([1]; n (%))?
**A.** Its value is 0.

**Q.** What about the “Serious TEAE: Grade 2” value ([1]; n (%)) of the same molecule?
**A.** The value was 0.

**Q.** And the “Serious Treatment Emergent Adverse Events” value ([1]; n (%))?
**A.** Its value is 0.

**Q.** And the “Treatment Emergent Adverse Events: Drug-related to Treatment A” value ([1]; n (%))?
**A.** The value was 4 (33.3%).

**Q.** What about the “Treatment Emergent Adverse Events: Drug-related to Treatment B” value ([1]; n (%)) of the same molecule?
**A.** Its value is 4 (33.3%).

**Q.** And the “subjects with TEAE gynecomastia” value ([1]; n (%))?
**A.** Its value is 3 (25.0%).

**Q.** What about the “subjects with sexual side effects” value ([1]; n (%)) of the same molecule?
**A.** Its value is 3 (25.0%).

**Q.** What about the “Treatment Emergent Adverse Events, subjects” value ([1]; n (%) of subjects treated) of the same molecule?
**A.** The value was 5 (41.7%).

**Q.** What about the “Treatment Emergent Adverse Events: >=Grade 3” value ([1]; worst grade, n (%)) of the same molecule?
**A.** Its value is 0.

**Q.** And the “Treatment Emergent Adverse Events: Grade 1” value ([1]; worst grade, n (%))?
**A.** The value was 4 (33.3%).

**Q.** And the “Treatment Emergent Adverse Events: Grade 2” value ([1]; worst grade, n (%))?
**A.** The value was 1 (8.3%).

**Q.** And the “time the drug was found to be stable in applesauce” value [2]?
**A.** Its value is “at least 6 hours”.
